Data set [1] deals with transcription in Drosophila extract depleted of P-TEFb. As to the kind of experiment: Transcription activity of recombinant protein added into Drosophila extract depleted of P-TEFb (Table 1). It is filed as biochemical.
Data set [2] deals with RNA polymerase II. The experiment in a line: Kinase assay of recombinant P-TEFb subunits with RNA polymerase II as substrate (Table 1). The format is biochemical, Drosophila. The method, then:
0.4 μl of purified RNA polymerase II and various protein samples were mixed in 18 μl of 55 mM HMK. The reaction was then initiated by the addition of 2 μl of a solution containing 2 μCi of [γ-^32P]ATP (ICN) and unlabeled ATP at 10 μM, or only unlabeled ATP at concentrations from 1 to 100 μM or other NTPs or dNTPs at concentrations of 1 to 100 μM. Reactions were incubated for the indicated times at 23° C. and then terminated with SDS loading buffer. Samples were analyzed on a 6–15% SDS polyacrylamide gel which was silver stained, dried and subjected to autoradiography if the assay contained label.
Using the CTD Kinase assay, as previously described in Example 2, Section A.7, both HBL1-1 (SEQ ID NO:45), HBL2(SEQ ID NO:47) and HBL3 (SEQ ID NO:50) were substituted for the large subunit in the Drosophila transcription system. Alone “PITARLE” has little kinase activity and no detectable activity in transcription.

The target of data set [3] is T1, RNA polymerase II (Drosophila melanogaster, UniProt P04052).
T1 construct: endogenous in cells; host or cells: Drosophila Kc cell nuclear extract; washed early elongation complexes on immobilized actin A2 template
T1 sequence (P04052 whole entry): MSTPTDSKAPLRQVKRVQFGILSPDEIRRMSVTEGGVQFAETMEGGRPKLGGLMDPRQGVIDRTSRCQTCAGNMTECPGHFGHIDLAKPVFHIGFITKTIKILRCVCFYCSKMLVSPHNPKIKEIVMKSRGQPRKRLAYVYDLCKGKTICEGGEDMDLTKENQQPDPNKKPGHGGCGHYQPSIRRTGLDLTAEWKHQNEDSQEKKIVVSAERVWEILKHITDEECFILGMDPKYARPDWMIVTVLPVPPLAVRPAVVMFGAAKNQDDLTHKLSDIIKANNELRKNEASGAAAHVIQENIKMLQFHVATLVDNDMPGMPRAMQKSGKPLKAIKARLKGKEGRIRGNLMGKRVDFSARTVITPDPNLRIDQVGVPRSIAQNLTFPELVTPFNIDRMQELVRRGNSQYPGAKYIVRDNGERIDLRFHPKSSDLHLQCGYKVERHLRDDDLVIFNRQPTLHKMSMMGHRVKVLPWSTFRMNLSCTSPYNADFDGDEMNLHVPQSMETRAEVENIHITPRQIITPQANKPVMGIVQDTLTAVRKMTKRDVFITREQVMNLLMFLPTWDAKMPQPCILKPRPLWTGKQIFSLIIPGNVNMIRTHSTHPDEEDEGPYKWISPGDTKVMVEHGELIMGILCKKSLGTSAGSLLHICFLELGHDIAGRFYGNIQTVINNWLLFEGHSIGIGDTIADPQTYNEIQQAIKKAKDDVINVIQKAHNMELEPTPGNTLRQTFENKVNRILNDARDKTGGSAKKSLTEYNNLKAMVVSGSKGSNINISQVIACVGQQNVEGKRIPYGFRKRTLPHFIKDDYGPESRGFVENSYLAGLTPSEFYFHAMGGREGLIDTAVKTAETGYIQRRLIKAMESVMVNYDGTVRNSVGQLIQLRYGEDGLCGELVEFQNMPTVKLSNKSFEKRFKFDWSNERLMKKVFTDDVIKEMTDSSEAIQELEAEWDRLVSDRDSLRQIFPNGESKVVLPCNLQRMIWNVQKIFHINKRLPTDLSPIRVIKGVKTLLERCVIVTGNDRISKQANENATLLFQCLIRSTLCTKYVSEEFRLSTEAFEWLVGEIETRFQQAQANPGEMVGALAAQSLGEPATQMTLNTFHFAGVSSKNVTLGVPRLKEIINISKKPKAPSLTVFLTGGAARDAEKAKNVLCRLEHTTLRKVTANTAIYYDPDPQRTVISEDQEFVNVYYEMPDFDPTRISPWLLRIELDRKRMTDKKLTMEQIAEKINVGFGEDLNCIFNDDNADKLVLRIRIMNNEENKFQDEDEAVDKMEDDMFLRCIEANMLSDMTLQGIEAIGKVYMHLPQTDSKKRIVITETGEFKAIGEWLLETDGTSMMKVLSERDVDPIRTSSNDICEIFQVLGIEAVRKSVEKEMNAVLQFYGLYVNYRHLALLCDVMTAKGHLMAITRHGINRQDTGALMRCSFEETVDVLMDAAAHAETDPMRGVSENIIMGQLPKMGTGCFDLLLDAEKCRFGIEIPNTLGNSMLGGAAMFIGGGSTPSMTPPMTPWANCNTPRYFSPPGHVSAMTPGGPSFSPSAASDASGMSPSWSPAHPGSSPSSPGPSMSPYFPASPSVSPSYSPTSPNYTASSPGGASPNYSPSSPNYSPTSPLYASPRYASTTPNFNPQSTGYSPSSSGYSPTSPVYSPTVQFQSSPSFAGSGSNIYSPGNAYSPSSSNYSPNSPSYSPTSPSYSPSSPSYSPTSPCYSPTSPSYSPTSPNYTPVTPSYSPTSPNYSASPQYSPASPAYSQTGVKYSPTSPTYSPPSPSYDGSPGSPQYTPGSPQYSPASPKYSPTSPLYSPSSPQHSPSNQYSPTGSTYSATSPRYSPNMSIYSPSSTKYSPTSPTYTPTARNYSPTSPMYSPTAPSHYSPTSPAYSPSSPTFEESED
As to the kind of experiment: Immobilized template add-back assay, elongation by isolated early elongation complexes. It is filed as biochemical. Conditions: added prior to the chase. The procedure: Since P-TEF was first identified using an immobilized template assay, the ability of HeLa NE to generate DRB-sensitive elongation complexes when added back to isolated EECs was examined. Drosophila actin A2 DNA template and Kc cell NE was used to form EECs containing Drosophila RNA polymerase II. An immobilized A2 template was preincubated with Kc cell NE and then pulsed for 30 sec with [α-^32P] CTP. The resulting EECs were isolated, and washed. Only short transcripts were produced during the pulse and the labeled […] were removed by the washing protocol. […] However, addition of Kc cell NE to the chase, allowed some EECs to enter productive elongation and make long DRB-sensitive transcripts. When a HeLa NE that was capable of producing high levels of DRB-sensitive transcription was added to the chase, DRB-sensitive transcripts were also produced.

On to “PITALRE: human P-TEFb small (kinase) subunit, SEQ ID NO:6, HIS-tagged, baculovirus expressed”, for which the Transcription activity entry in data set [1] is given as “none”. In the data set with RNA polymerase II [2] (RNA polymerase II as substrate), the Kinase activity result was “very little”. Besides, in the data set with RNA polymerase II [2] (phosphorylation of the CTD of RNA polymerase II), the “stimulation of the activity of PITALRE by the cyclin subunit” value is reported as “approximately 100 fold”.

As for α-amanitin, the “elongation by all EECs” value on RNA polymerase II [3] was “inhibited”.

These data come from US7018836B1, “P-TEFb compositions, methods and screening assays” (priority 1996, dated 2006).
